In experiment [1] the test system is primary hippocampal neurons. Put plainly: Hippocampal neuronal growth: neurite outgrowth of cultured primary hippocampal neurons, anti-tau immunostaining, confocal microscopy. In kind it is cell-based, Sprague-Dawley rats. Particulars: 48 h. The procedure: In certain embodiments, the activity of the compounds provided herein to modulate neuronal growth, can be tested using cultured primary hippocampal neurons. Primary hippocampal neurons are cultured on poly-DL-ornithine-coated coverslips with or without each compound. After 48 h, the neurons are fixed, immunostained with anti-tau antibodies, and examined by confocal fluorescence microscopy. The effect of sulfated tetrasaccharide CS-E on neuronal morphology and growth is illustrated in FIGS. 1A-B. The number of neurites emanating from the cell body was enhanced, and the growth of the major extension was stimulated by 39.3±3.6% relative to the poly-DL-omithine control.
Hippocampal Neuronal Cultures. Hippocampal neuronal cultures were prepared using a modified version of the Goslin and Banker protocol (Goslin, K.; Banker, G. In Culturing Nerve Cells; Banker, G.; Goslin, K.; Eds.; MIT Press: Cambridge, Mass., 1991; pp 251-281). Embryos at the E18 stage were obtained from timed-pregnant Sprague-Dawley rats, and the hippocampus from each embryo was dissected. All the hippocampi from one preparation were transferred to a 15 mL conical tube containing 4.5 mL of ice-cold Calcium and Magnesium Free-Hank's Balanced Salt Solution (CMF-HBSS) (GIBCO). Trypsin (2.5%, no EDTA; GIBCO) was added to 5 mL, and the tissue was digested for 15 min at 37° C. The trypsin solution was removed and the tissue rinsed with 5 mL of CMF-HBSS three times. The tissue was then dissociated in 1 mL of CMF-HBSS by passing through a P1000 pipet tip twenty times. The cells were counted with a hemacytometer and plated on glass coverslips at 80 cells/mm2 and cultivated in minimal Eagle's Medium (MEM) (GIBCO) supplemented with the N2 mixture (GIBCO) and 0.1 mM pyruvate. The cultures were maintained in 5% CO2 at 37° C. Glass coverslips were coated as described by Clement et. al. (Clement, A.M.; Nadanaka, S.; Masayama, K.; Mandl, C.; Sugahara, K.; Faissner, A. J. Biol. Chem. 1998, 273, 28444-28453) Briefly, coverslips were precoated with 0.015 mg/mL poly-DL-ornithine (SIGMA) for 1 h at 37° C./5% CO2, washed three times with double distilled H2O, and coated with 0.5 mg/mL of compounds 1-3 in PBS overnight at 37° C./5% CO2. The coverslips were then washed three times with PBS and flooded with MEM+N2 media.
Immunocytochemistry of Hippocampal Neuronal Cultures. After 48 h in culture, hippocampal neurons on coverslips were used for immunostaining. […]
Morphometric Analysis. For quantitative analysis, 50 cells were analyzed per coverslip. Only cells with neurites longer than one cell body diameter were counted. The length of the longest neurite from stained cells was measured using N1H Image 1.52 software. […]

The next experiment relates to dopaminergic neurons. The experiment in a line: Outgrowth of cultured dopaminergic neurons. In kind it is cell-based. From the text: (§1) Effect of disaccharide CS-E, tetrasaccharides CS-E, and unsulfated tetrasaccharide on the growth of dopaminergic neurons as well as dorsal root ganglion (DRG) neurons from the spinal cord is illustrated in FIGS. 2A-B and 4A-B, respectively. In certain embodiments, the CS-E tetrasaccharide promoted the outgrowth of cultured dopaminergic and DRG neurons by 30-40% relative to the untreated controls. FIGS. 5 and 7 illustrate binding of tetrasaccharides CS-E, CS-C and disaccharide CS-E to tumor necrosis factor-α and midkine, respectively.

For experiment [2], the system named is dorsal root ganglion (DRG) neurons. The experiment in a line: Outgrowth of cultured dorsal root ganglion (DRG) neurons from the spinal cord. Type of experiment: cell-based.
Excerpt: as §1

[3] abbreviates: primary hippocampal neurons on poly-DL-ornithine-coated coverslips with compound.

For the compound `C=CCO[C@@H]1O[C@H](COS(=O)(=O)[O-])[C@H](OS(=O)(=O)[O-])[C@H](O[C@@H]2O[C@H](C(=O)[O-])[C@@H](O[C@@H]3O[C@H](COS(=O)(=O)[O-])[C@H](OS(=O)(=O)[O-])[C@H](O[C@@H]4O[C@H](C(=O)[O-])[C@@H](O)[C@H](O)[C@H]4O)[C@H]3NC(C)=O)[C@H](O)[C@H]2O)[C@H]1NC(C)=O.[Na+].[Na+].[Na+].[Na+].[Na+].[Na+]` [sulfated tetrasaccharide CS-E, Allyl (sodium β-D-glucopyranosyluronate)-(1→3)-(4,6-di-O-sodiumsulfonato-2-deoxy-2-acetamido-β-D-galactopyranosyl)-(1→4)-(sodium β-D-glucopyranosyluronate)-(1→3)-4,6-di-O-sodium sulfonato-2-deoxy-2-acetamido-β-D-galactopyranoside], the “growth of the major extension stimulated relative to the poly-DL-ornithine control” value in experiment [1] (primary hippocampal neurons on poly-DL-ornithine-coated coverslips with compound (0.5 mg/mL coating)) turned out to be 39.3±3.6%. Besides, the “number of neurites emanating from the cell body” value in experiment [1] (setting [3]) is on record as “enhanced”. Besides, the “outgrowth promoted relative to the untreated controls” value (in the experiment with dopaminergic neurons; in experiment [2]) was 30-40% in each case.

“Allyl (sodium β-D-glucopyranosyluronate)-(1→3)-4,6-di-O-sodium sulfonato-2-deoxy-2-acetamido-β-D-galactopyranoside [sulfated disaccharide]”: in experiment [1] (setting [3]), the “effect on neuronal outgrowth” value is “no significant effect”.

With `C=CCO[C@@H]1O[C@H](CO)[C@H](O)[C@H](O[C@@H]2O[C@H](C(=O)[O-])[C@@H](O[C@@H]3O[C@H](CO)[C@H](O)[C@H](O[C@@H]4O[C@H](C(=O)[O-])[C@@H](O)[C@H](O)[C@H]4O)[C@H]3NC(C)=O)[C@H](O)[C@H]2O)[C@H]1NC(C)=O.[Na+].[Na+]` [unsulfated tetrasaccharide, Allyl (sodium β-D-glucopyranosyluronate)-(1→3)-(2-deoxy-2-acetamido-β-D-galactopyranosyl)-(1→4)-(sodium β-D-glucopyranosyluronate)-(1→3)-2-deoxy-2-acetamido-β-D-galactopyranoside], the “effect on neuronal outgrowth” value in experiment [1] (setting [3]) was “no significant effect”.

(Values after patent publication US7638503B2, “Small molecule stimulators of neuronal growth” (California Institute of Technology, priority 2004, dated 2009).)
